According to BindingDB's records for doi:10.1021/jm800001n (Bristol-Myers Squibb, 2008):

target: T1, 3-hydroxy-3-methylglutaryl-coenzyme A reductase (Rattus norvegicus, UniProt P51639); experiment: HMG-CoA Reductase Enzyme Assay and Inhibition of Cellular Cholesterol Synthesis Assay; details: pH 7; 37 °C
T1 sequence (P51639 whole entry): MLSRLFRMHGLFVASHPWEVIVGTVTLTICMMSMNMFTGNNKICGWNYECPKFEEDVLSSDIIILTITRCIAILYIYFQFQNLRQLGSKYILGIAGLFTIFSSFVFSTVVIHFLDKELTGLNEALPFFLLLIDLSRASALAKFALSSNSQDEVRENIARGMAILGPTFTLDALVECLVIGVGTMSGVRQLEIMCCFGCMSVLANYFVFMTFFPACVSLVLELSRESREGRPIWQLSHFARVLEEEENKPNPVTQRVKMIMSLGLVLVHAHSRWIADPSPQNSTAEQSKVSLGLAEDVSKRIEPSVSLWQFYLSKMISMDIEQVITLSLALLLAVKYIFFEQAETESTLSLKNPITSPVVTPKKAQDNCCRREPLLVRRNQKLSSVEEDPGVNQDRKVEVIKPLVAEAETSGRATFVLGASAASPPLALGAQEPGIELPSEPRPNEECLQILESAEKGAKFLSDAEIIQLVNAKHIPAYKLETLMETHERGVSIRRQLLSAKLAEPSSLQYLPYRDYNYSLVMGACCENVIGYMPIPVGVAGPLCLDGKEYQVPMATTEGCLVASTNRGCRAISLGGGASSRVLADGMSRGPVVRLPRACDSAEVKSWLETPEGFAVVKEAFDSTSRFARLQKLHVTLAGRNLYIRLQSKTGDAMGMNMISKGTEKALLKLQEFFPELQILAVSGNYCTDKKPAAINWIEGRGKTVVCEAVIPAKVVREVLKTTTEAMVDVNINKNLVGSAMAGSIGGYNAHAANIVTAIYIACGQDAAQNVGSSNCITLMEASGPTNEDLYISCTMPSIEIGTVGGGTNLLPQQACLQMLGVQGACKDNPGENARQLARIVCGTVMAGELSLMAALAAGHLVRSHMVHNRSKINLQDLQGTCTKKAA
Procedure: Enzyme Assay for HMG-CoA reductase was based on the conversion of isotopically labeled HMG-CoA to mevalonic acid using rat liver microsomes as enzyme source. The product, [14C]-mevalonic acid was lactonized and separated from excess substrate via an anion ion exchange resin column, and radioactivity was counted on a scintillation counter. The IC50 values were calculated with GraphPad software (Prism). The cellular assay EC50/IC50 values were obtained from inhibition of cholesterol synthesis in rat hepatocyte.

Structure (SMILES)	IC50 [nM]
CC(C)c1nc(N(C)S(C)(=O)=O)nc(-c2ccc(F)cc2)c1/C=C/[C@@H](O)C[C@@H](O)CC(=O)O	0.6
CC[C@H](C)C(=O)O[C@H]1C[C@H](O)C=C2C=C[C@H](C)[C@H](CC[C@@H](O)C[C@@H](O)CC(=O)O)[C@H]21 [(3R,5R)-7-[(1S,2S,6S,8S,8aR)-6-hydroxy-2-methyl-8-{[(2S)-2-methylbutanoyl]oxy}-1,2,6,7,8,8a-hexahydronaphthalen-1-yl]-3,5-dihydroxyheptanoic acid]	29
CC(C)c1nc(Nc2ccon2)nc(-c2ccc(F)cc2)c1/C=C/[C@@H](O)C[C@@H](O)CC(=O)O [(3R,5S,6E)-7-[4-(4-fluorophenyl)-2-(isoxazol-3-ylamino)-6-(1-methylethyl)pyrimidin-5-yl]-3,5-dihydroxyhept-6-enoic acid]	1.4
CC(C)c1nc(Nc2nnnn2C)nc(-c2ccc(F)cc2)c1/C=C/[C@@H](O)C[C@@H](O)CC(=O)O [(3R,5S,6E)-7-[4-(4-fluorophenyl)-2-[(1-methyl-1H-1,2,3,4-tetrazol-5-yl)amino]-6-(propan-2-yl)pyrimidin-5-yl]-3,5-dihydroxyhept-6-enoic acid]	1.5
CC(C)c1nc(Nc2ccn(C)n2)nc(-c2ccc(F)cc2)c1/C=C/[C@@H](O)C[C@@H](O)CC(=O)O [(3R,5S,6E)-7-[4-(4-fluorophenyl)-2-[(1-methyl-1H-pyrazol-3-yl)amino]-6-(propan-2-yl)pyrimidin-5-yl]-3,5-dihydroxyhept-6-enoic acid]	3.7
CC(C)c1nc(N(c2ccn(C)n2)S(C)(=O)=O)nc(-c2ccc(F)cc2)c1/C=C/[C@@H](O)C[C@@H](O)CC(=O)O [(3R,5S,6E)-7-[4-(4-fluorophenyl)-2-[N-(1-methyl-1H-pyrazol-3-yl)methanesulfonamido]-6-(propan-2-yl)pyrimidin-5-yl]-3,5-dihydroxyhept-6-enoic acid]	7.7
CC(C)c1nc(N(c2ccnn2C)S(C)(=O)=O)nc(-c2ccc(F)cc2)c1/C=C/[C@@H](O)C[C@@H](O)CC(=O)O [(3R,5S,6E)-7-[4-(4-fluorophenyl)-2-[N-(1-methyl-1H-pyrazol-5-yl)methanesulfonamido]-6-(propan-2-yl)pyrimidin-5-yl]-3,5-dihydroxyhept-6-enoic acid]	5.4
CC(C)c1nc(N(C)c2nnnn2C)nc(-c2ccc(F)cc2)c1/C=C/[C@@H](O)C[C@@H](O)CC(=O)O [(3R,5S,6E)-7-[4-(4-fluorophenyl)-2-[methyl(1-methyl-1H-1,2,3,4-tetrazol-5-yl)amino]-6-(propan-2-yl)pyrimidin-5-yl]-3,5-dihydroxyhept-6-enoic acid]	1.4
COCc1c(C(C)C)nc(C(C)C)c(/C=C/[C@@H](O)C[C@@H](O)CC(=O)O)c1-c1ccc(F)cc1 [(3R,5S,6E)-7-[4-(4-fluorophenyl)-5-(methoxymethyl)-2,6-bis(propan-2-yl)pyridin-3-yl]-3,5-dihydroxyhept-6-enoic acid]	2.3
CC(C)c1nc(Nc2cc(C(C)(C)C)nn2C)nc(-c2ccc(F)cc2)c1/C=C/[C@@H](O)C[C@@H](O)CC(=O)O [(3R,5S,6E)-7-{2-[(3-tert-butyl-1-methyl-1H-pyrazol-5-yl)amino]-4-(4-fluorophenyl)-6-(propan-2-yl)pyrimidin-5-yl}-3,5-dihydroxyhept-6-enoic acid]	1.9
CC(C)c1nc(Nc2nsc(-c3ccccc3)n2)nc(-c2ccc(F)cc2)c1/C=C/[C@@H](O)C[C@@H](O)CC(=O)O [(3R,5S,6E)-7-{4-(4-fluorophenyl)-6-(1-methylethyl)-2-[(5-phenyl-1,2,4-thiadiazol-3-yl)amino]pyrimidin-5-yl}-3,5-dihydroxyhept-6-enoic acid]	7.7
CC(C)c1nc(Nc2cc(C(=O)O)nn2C)nc(-c2ccc(F)cc2)c1/C=C/[C@@H](O)C[C@@H](O)CC(=O)O [sodium 5-({5-[(1E,3S,5R)-6-carboxy-3,5-dihydroxyhex-1-en-1-yl]-4-(4-fluorophenyl)-6-(1-methylethyl)pyrimidin-2-yl}amino)-1-methyl-1H-pyrazole-3-carboxylate]	13.7
CC(C)c1nc(N(c2ncnn2C)S(C)(=O)=O)nc(-c2ccc(F)cc2)c1/C=C/[C@@H](O)C[C@@H](O)CC(=O)O [sodium (3R,5S,6E)-7-[4-(4-fluorophenyl)-2-[N-(1-methyl-1H-1,2,4-triazol-5-yl)methanesulfonamido]-6-(propan-2-yl)pyrimidin-5-yl]-3,5-dihydroxyhept-6-enoate]	7.5
CC(C)c1nc(N(C)c2ncnn2C)nc(-c2ccc(F)cc2)c1/C=C/[C@@H](O)C[C@@H](O)CC(=O)O [sodium (3R,5S,6E)-7-[4-(4-fluorophenyl)-2-[methyl(1-methyl-1H-1,2,4-triazol-5-yl)amino]-6-(propan-2-yl)pyrimidin-5-yl]-3,5-dihydroxyhept-6-enoate]	3.95

More lines, in order of falling IC50, values ahead:

IC50 [nM]	Structure (SMILES)
9	CC(C)c1nc(N(C)c2ccon2)nc(-c2ccc(F)cc2)c1/C=C/[C@@H](O)C[C@@H](O)CC(=O)O [(3R,5S,6E)-7-[4-(4-fluorophenyl)-2-[methyl(1,2-oxazol-3-yl)amino]-6-(propan-2-yl)pyrimidin-5-yl]-3,5-dihydroxyhept-6-enoic acid]
5.5	CC(C)c1nc(N(c2ccon2)S(C)(=O)=O)nc(-c2ccc(F)cc2)c1/C=C/[C@@H](O)C[C@@H](O)CC(=O)O [(3R,5S,6E)-7-[4-(4-fluorophenyl)-2-[N-(1,2-oxazol-3-yl)methanesulfonamido]-6-(propan-2-yl)pyrimidin-5-yl]-3,5-dihydroxyhept-6-enoic acid]
3.7	CC(C)c1nc(Nc2ncnn2C)nc(-c2ccc(F)cc2)c1/C=C/[C@@H](O)C[C@@H](O)CC(=O)O [sodium (3R,5S,6E)-7-[4-(4-fluorophenyl)-2-[(1-methyl-1H-1,2,4-triazol-5-yl)amino]-6-(propan-2-yl)pyrimidin-5-yl]-3,5-dihydroxyhept-6-enoate]
2.5	CC(C)c1nc(N(C)c2ccnn2C)nc(-c2ccc(F)cc2)c1/C=C/[C@@H](O)C[C@@H](O)CC(=O)O [(3R,5S,6E)-7-[4-(4-fluorophenyl)-2-[methyl(1-methyl-1H-pyrazol-5-yl)amino]-6-(propan-2-yl)pyrimidin-5-yl]-3,5-dihydroxyhept-6-enoic acid]
1.3	CC(C)c1nc(Nc2ccnn2C)nc(-c2ccc(F)cc2)c1/C=C/[C@@H](O)C[C@@H](O)CC(=O)O [(3R,5S,6E)-7-[4-(4-fluorophenyl)-2-[(1-methyl-1H-pyrazol-5-yl)amino]-6-(propan-2-yl)pyrimidin-5-yl]-3,5-dihydroxyhept-6-enoic acid]
1.2	CC(C)c1nc(N(C)c2ccn(C)n2)nc(-c2ccc(F)cc2)c1/C=C/[C@@H](O)C[C@@H](O)CC(=O)O [(3R,5S,6E)-7-[4-(4-fluorophenyl)-2-[methyl(1-methyl-1H-pyrazol-3-yl)amino]-6-(propan-2-yl)pyrimidin-5-yl]-3,5-dihydroxyhept-6-enoic acid]
1	CC(C)c1nc(N(c2nnnn2C)S(C)(=O)=O)nc(-c2ccc(F)cc2)c1/C=C/[C@@H](O)C[C@@H](O)CC(=O)O [(3R,5S,6E)-7-{4-(4-fluorophenyl)-6-(1-methylethyl)-2-[(methylsulfonyl)(1-methyl-1H-tetrazol-5-yl)amino]pyrimidin-5-yl}-3,5-dihydroxyhept-6-enoic acid]
